The conditions of series [1]: solvent Cétiol LC (Cocoyl cyprylate caprate).
The conditions of series [2]: irradiated in high dilution with a Hg-lamp 150 W (Heraeus).
The conditions of series [3]: solvent Crodamol DA (diisopropyladipate).

As for `C=CCc1cc(C(C)(C)C)cc2nc(-c3ccc(-c4nc5cc(C(C)(C)C)cc(CC=C)c5o4)cc3)oc12` [Example 1, 1,4-bis-[2-(5-tert.-butyl-7-allyl-benzoxazol)-yl]-benzene], in series [1], the “solubility in Cétiol LC” value was found to be 1.1%. For the same molecule, the photostability entry in series [2] is recorded as “photostable”.
As to `CC(C)(C)c1cc(CCC[Si](C)(C)O[Si](C)(C)C)c2oc(-c3ccc(-c4nc5cc(C(C)(C)C)cc(CCC[Si](C)(C)O[Si](C)(C)C)c5o4)cc3)nc2c1` [Example 2, 1,4-bis-[2-(5-tert.-butyl-7-{3-(1,1,3,3,3-pentamethyl-disiloxanyl)-1-propyl}-benzoxazol)-yl]-benzene], the “solubility in Cétiol LC” value in series [1] is reported as 18%. Further, the photostability entry in series [2] is “photostable”.
For `CC(Cc1cccc2nc(-c3ccc(-c4nc5cccc(CC(C)C[Si](C)(C)O[Si](C)(C)C)c5o4)cc3)oc12)C[Si](C)(C)O[Si](C)(C)C` (stereo not shown) [Example 3, 1,4-bis-[2-(7-{3-(1,1,3,3,3-pentamethyl-disiloxanyl)-1-isobutyl}-benzoxazol)-yl]-benzene], the “solubility in Crodamol DA” value in series [3] is listed as 5.03%. In addition, in series [2], the photostability result was “photostable”.
Regarding `CC(Cc1cc(C(C)(C)C)cc2nc(-c3ccc(-c4nc5cc(C(C)(C)C)cc(CC(C)C[Si](C)(O[Si](C)(C)C)O[Si](C)(C)C)c5o4)cc3)oc12)C[Si](C)(O[Si](C)(C)C)O[Si](C)(C)C` (stereo not shown) [Example 5, 1,4-bis-[2-(5-tert.-butyl-7-{3-(1,3,3,3-tetramethyl-1-[(tri-methyl-silyl)-oxy]-disiloxanyl)-1-isobutyl}-benzoxazol)-yl]-benzene], in series [1], the “solubility in Cétiol LC” value is on record as 12.3%. Also, the photostability entry in series [2] is listed as “photostable”.
Turning to `CCCCC=CC(C)c1cc(C)cc2nc(-c3ccc(-c4nc5cc(C)cc(C(C)C=CCCCC)c5o4)cc3)oc12` (stereo not shown) [Example 6, 1,4-bis-[2-(5-methyl-7-oct-3-en-2-yl-benzoxazol)-yl]-benzene], the “solubility in Crodamol DA” value in series [3] worked out at 1.33%. For the same molecule, in series [2], the photostability result was “photostable”.
On to `CCCCC=CC(C)c1cc(C(C)(C)C)cc2nc(-c3ccc(-c4nc5cc(C(C)(C)C)cc(C(C)C=CCCCC)c5o4)cc3)oc12` (stereo not shown) [Example 8, 1,4-bis-[2-(5-tert.-butyl-7-oct-3-en-2-yl-benzoxazol)-yl]-benzene], for which the “mixability with conventional cosmetic solvents” value is given as “easily mixable”. For the same molecule, the photostability entry in series [2] is “photostable”.
In the case of `CCCCC=CC(C)c1cccc2nc(-c3ccc(-c4nc5cccc(C(C)C=CCCCC)c5o4)cc3)oc12` (stereo not shown) [Example 9, 1,4-bis-[2-(7-oct-3-en-2-yl-benzoxazol)-yl]-benzene], the “solubility in Cétiol LC” value in series [1] came to 1.02%. For the same molecule, in series [2], the photostability entry is listed as “photostable”.
For `CCCCCCC(C)c1cc(C(C)(C)C)cc2nc(-c3ccc(-c4nc5cc(C(C)(C)C)cc(C(C)CCCCCC)c5o4)cc3)oc12` (stereo not shown) [Example 11, 1,4-bis-[2-(5-tert.-butyl-7-oct-2-yl-benzoxazol)-yl]-benzene], the “mixability with conventional cosmetic solvents” value is “easily mixable”. Moreover, the photostability entry in series [2] is given as “photostable”.

(Values after patent US7109376B2, “Benzene and naphthylene derivatives and their use as UV screening agents” (DSM IP Assets B.V., priority 2001, dated 2006).)
